Laboratory results reported in patent US20260102407A1, “TREATMENT METHODS” (priority 2020, published 2026).

Experiments:
CD31 = assay: Immunohistochemical staining of rat retina, CD31; type: in vivo; conditions: lasered rat eyes 21 days after injury
Description: Rat choroidal laser injury model. Male Brown Norway pigmented rats (8-14 week-old) were anesthetized by an intramuscular injection of Rompun® (xylazine)/Imalgene® (ketamine). Pupils were dilated by instillation of one drop of 0.5% tropicamide before laser burn. Six burns were created in both eyes on Day 0 by applying 170 mW of 532 nm laser light (Viridis laser, Quantel, France) on 75 μm spots around the optic nerve, between the main retinal vessel branches, for 0.1s, through the slit lamp and contact lens. Production of a bubble at the time of laser application confirmed the rupture of Bruch's membrane. […] After anaesthesia, 10% sodium fluorescein (250 μl/100 g body weight) was injected subcutaneously, and ocular fluorescence was recorded 10 min after dye injection. Fluorescein leakage was evaluated on Days 14 and 21 in the angiograms by two examiners masked to the study groups and graded for fluorescein intensity as follows: score 0: no leakage; 1: slightly stained; 2: moderately stained; 3: strongly stained.
Immunohistochemical staining of rat retina. […] IOD of positive staining (red chromogen) was assessed for CD31, VEGF-A165, pERK, FosB and VCAM-1 using Image-Pro Plus software (Cybernetics, Bethesda, MD). IOD in IPL and INL was quantified for CD31; OPL to OS for VEGF-A165; INL to ONL for pERK; GCL to OS for FosB; OLM for VCAM-1, using Image-Pro Plus. […]

FosB/ΔFosB = assay: Western blot, IL-1β-inducible FosB/ΔFosB expression in HMEC-1; type: cell-based, human; conditions: 30 μM, 20 ng/ml IL-1β up to 4 h
Method: (§1) Western blot analysis with extracts of cells treated with IL-13. HMEC-1 (80-90% confluency) were arrested in serum-free MCDB131 medium (Invitrogen, MD) without any growth factor for 48 h. Cells were treated with 30 μM compound in serum-free medium for 4 h, and incubated with 20 ng/ml IL-1β (Sigma, cat. SRE3083) in serum-free medium with the same concentration of compound for up to 4 h, unless otherwise indicated. Total protein was harvested as previously described using RIPA buffer with protease inhibitors. Proteins were resolved on 4-20% (w/v) SDS-polyacrylamide gradient gels and transferred to Immobilon-P PVDF membranes. […] Chemiluminescence was detected using the Western Lightning Chemiluminescence system and ImageQuant™ LAS 4000 biomolecular imager. Band intensity in images generated with the LAS 4000 using the same settings were quantified by NIH ImageJ.

VCAM-1 = assay: Western blot, IL-1β-inducible VCAM-1 expression in HMEC-1; type: cell-based, human
Method: as §1

rabbits = assay: GLP ocular tolerance study, single intravitreal injection; type: in vivo, rabbit; conditions: single intravitreal injection 10 μg/50 μl, after 28 days

CCOC(=O)Nc1ccc2c(c1)C(=O)N(CC)c1ccccc1O2 [BT2, (10-ethyl-11-oxo-10,11-dihydro-dibenzo[b,f][1,4]oxazepin-2-yl)-carbamic acid ethyl ester]
inducible CD31 staining in the IPL and INL (CD31): inhibited inducible CD31 staining
IL-1β-inducible FosB/ΔFosB expression (Western blot) (FosB/ΔFosB): inhibited
IL-1β-inducible VCAM-1 expression (Western blot) (VCAM-1; 30 μM, 20 ng/ml IL-1β up to 4 h): inhibited
inhibition of IL-1β-inducible VCAM-1, potency relative to PD98059 (VCAM-1; dose escalation 1-30 μM): more potently than PD98059
ocular tolerance (rabbits): well tolerated macroscopically and histologically
